This is an account of results in patent US20130053243A1, “PLANTS HAVING INCREASED TOLERANCE TO HERBICIDES” (BASF SE, priority 2010, published 2013).

For assay [1], the target named is T1, Arabidopsis HPPD (Arabidopsis thaliana, UniProt P93836).
T1 construct: His6 (N); made in house; host or cells: E. coli BL21 (DE3)
T1 sequence (P93836 1-445): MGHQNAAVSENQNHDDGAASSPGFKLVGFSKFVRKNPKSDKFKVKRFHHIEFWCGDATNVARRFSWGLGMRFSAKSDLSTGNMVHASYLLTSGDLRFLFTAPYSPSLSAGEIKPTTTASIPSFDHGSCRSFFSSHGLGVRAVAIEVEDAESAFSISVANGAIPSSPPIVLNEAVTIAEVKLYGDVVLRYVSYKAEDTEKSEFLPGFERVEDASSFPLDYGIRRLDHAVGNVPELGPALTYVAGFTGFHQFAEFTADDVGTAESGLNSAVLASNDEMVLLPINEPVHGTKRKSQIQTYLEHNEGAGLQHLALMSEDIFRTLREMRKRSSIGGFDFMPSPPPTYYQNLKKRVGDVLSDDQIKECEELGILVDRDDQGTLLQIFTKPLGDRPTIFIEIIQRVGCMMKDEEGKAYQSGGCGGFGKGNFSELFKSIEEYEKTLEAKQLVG
The experiment in a line: HPPD activity assay (homogentisic acid by HPLC), wildtype enzyme. The class given is biochemical. The conditions noted are these: Table 11, calculated from IC50 with Cheng-Prusoff equation, read-out: dissociation constant Ki. The protocol:
(§1) HPPD produces homogentisic acid and CO2 from 4-hydroxyphenylpyruvate (4-HPP) and O2. The activity assay for HPPD is based on the analysis of homogentisic acid by reversed phase HPLC.
(§2) The assay mixture can contain 150 mM potassium phosphate buffer pH 7.0, 50 mM L-ascorbic acid, 1 μM FeSO4 and 7 μg of purified enzyme in a total volume of 1 ml.
(§3) Inhibitors are dissolved in DMSO (dimethylsulfoxide) to a concentration of 20 mM or 0.5 mM, respectively. From this stock solution serial five-fold dilutions are prepared in DMSO, which are used in the assay. The respective inhibitor solution accounts for 1% of the assay volume. Thus, final inhibitor concentrations range from 200 μM to 2.5 nM or from 5 μM to 63 pM, respectively.
(§4) After a preincubation of 30 min the reaction is started by adding 4-HPP to a final concentration of 0.1 mM. The reaction is allowed to proceed for 120 min at room temperature. The reaction is stopped by addition of 100 μl of 4.5 M phosphoric acid.
The sample is extracted on an Oasis® HLB cartridge 3 cc/60 mg (Waters) that was preequilibrated with 63 mM phosphoric acid. L-ascorbic acid is washed out with 3 ml of 63 mM phosphoric acid. […]
(§5) 10 μl of the eluate is analyzed by reversed phase HPLC on a Symmetry® C18 column (particle size 3.5 μm, dimensions 4.6×100 mm; Waters) using 5 mM H3PO4/15% ethanol (w/w) as an eluent.
(§6) Homogentisic acid is detected electrochemically and quantified by measuring peak areas (Empower software; Waters).
Activities are normalized by setting the uninhibited enzyme activity to 100%. IC50 values are calculated using non-linear regression. […]
(§7) 5 μl of the cleared sample is analyzed on an Atlantis T3 column (particle size 3 μm, dimensions 3×50 mm; Waters) by isocratic elution using 90% 10 mM NaH2PO4 pH 2.2, 10% methanol (v/v).
(§8) HGA is detected electrochemically at 750 mV (mode: DC; polarity: positive) and quantified by integrating peak areas (Empower software; Waters).
Inhibitors are dissolved in DMSO (dimethylsulfoxide) to a concentration of 0.5 mM. […] IC50 values are calculated using non-linear regression. […]

Assay [2] has as its target Chlamydomonas HPPD1 (Chlamydomonas reinhardtii, UniProt A0A2K3DET7). The experiment in a line: HPPD activity assay, wildtype enzyme. The class given is biochemical. The conditions noted are these: calculated from IC50 with Cheng-Prusoff equation, read-out: dissociation constant Ki. The protocol: as §1, §2
Inhibitors are dissolved in DMSO (dimethylsulfoxide) to a concentration of 20 mM or 0.5 mM, respectively. From this stock solution serial five-fold dilutions are prepared in DMSO, which are used in the assay. The respective inhibitor solution accounts for 1% of the assay volume.
as §4
(§9) Activities are normalized by setting the uninhibited enzyme activity to 100%. IC50 values are calculated using non-linear regression.
The assay mixture can contain 150 mM potassium phosphate buffer pH 7.0, 50 mM L-ascorbic acid, 100 μM Catalase (Sigma-Aldrich), 1 μM FeSO4 and 0.2 units of purified HPPD enzyme in a total volume of 505 μl. […]
as §8
Inhibitors are dissolved in DMSO (dimethylsulfoxide) to a concentration of 0.5 mM. […] IC50 values are calculated using non-linear regression.
Using methods which are described in the above examples or well known in the art, purified, recombinant wildtype HPPD enzymes are characterized with respect to their kinetic properties and sensitivity towards HPPD inhibiting herbicides. Apparent michaelis constants (Km) and maximal reaction velocities (Vmax) are calculated by non-linear regression with the software GraphPad Prism 5 (GraphPad Software, La Jolla, USA) using a substrate inhibition model. […] Weighted means (by standard error) of Km and IC50 values are calculated from at least three independent experiments.

Assay [3] concerns the target T2, Arabidopsis HPPD variant Q293H (Arabidopsis thaliana, UniProt P93836, Q293H).
T2 construct: His6 (N); made in house; host or cells: E. coli BL21 (DE3)
Briefly: HPPD activity assay, mutant enzyme. The class given is biochemical. How it is done:
as §1, §2, §3, §4
(§10) The sample is extracted on an Oasis® HLB cartridge 3 cc/60 mg (Waters) that was preequilibrated with 63 mM phosphoric acid. L-ascorbic acid is washed out with 3 ml of 63 mM phosphoric acid. Homogentisate is eluted with 1 ml of a 1:1 mixture of 63 mM phosphoric acid and methanol (w/w).
as §5, §6, §9
(§11) The assay mixture can contain 150 mM potassium phosphate buffer pH 7.0, 50 mM L-ascorbic acid, 100 μM Catalase (Sigma-Aldrich), 1 μM FeSO4 and 0.2 units of purified HPPD enzyme in a total volume of 505 μl. 1 unit is defined as the amount of enzyme that is required to produce 1 nmol of HGA per minute at 20° C.
(§12) After a preincubation of 30 min the reaction is started by adding 4-HPP to a final concentration of 0.05 mM. The reaction is allowed to proceed for 45 min at room temperature. The reaction is stopped by the addition of 50 μl of 4.5 M phosphoric acid. The sample is filtered using a […] pore size PVDF filtration device.
as §7, §8
(§13) Inhibitors are dissolved in DMSO (dimethylsulfoxide) to a concentration of 0.5 mM. From this stock solution serial five-fold dilutions are prepared in DMSO, which are used in the assay. The respective inhibitor solution accounts for 1% of the assay volume. Thus, final inhibitor concentrations range from 5 μM to 320 pM, respectively. Activities are normalized by setting the uninhibited enzyme activity to 100%. IC50 values are calculated using non-linear regression.
(§14) Purified, mutant HPPD enzymes are obtained by the methods described above. Dose response and kinetic measurements are carried out using the described HPPD activity assay. Apparent michaelis constants (Km) and maximal reaction velocities (Vmax) are calculated by non-linear regression with the software GraphPad Prism 5 (GraphPad Software, La Jolla, USA) using a substrate inhibition model. Apparent kcat values are calculated from Vmax assuming 100% purity of the enzyme preparation. Weighted means (by standard error) of Km and IC50 values are calculated from at least three independent experiments. The Cheng-Prusoff equation for competitive inhibition (Cheng, Y. C.; Prusoff, W. H. Biochem Pharmacol 1973, 22, 3099-3108) is used to calculate dissociation constants (Ki). Examples of the data obtained are depicted in Table 13.

For assay [4], the target named is T3, Arabidopsis HPPD variant Q293N (Arabidopsis thaliana, UniProt P93836, Q293N).
T3 construct: His6 (N); made in house; host or cells: E. coli BL21 (DE3)
The experiment in a line: HPPD activity assay, mutant enzyme. The assay is classed as biochemical. The protocol:
as §1, §2, §3, §4, §10, §5, §6, §9, §11, §12, §7, §8, §13, §14

The test system of assay [5] is Chlamydomonas strain CC1961 wild-type. The experiment in a line: Growth inhibition of Chlamydomonas strains (tolerance). The assay is classed as cell-based, Chlamydomonas reinhardtii. The conditions noted are these: read-out: IC50 of growth inhibition. The protocol: (§15) Algae cells of Chlamydomonas reinhardtii strains CC-503 and CC-1691 (Duke University, Durham, USA) are propagated in TAP medium (Gorman and Levine (1965) PNAS 54: 1665-1669) by constant shaking at 100 rpm, 22° C. and 30 μmol Phot*m^−2*[…] light illumination. Scenedesmus obliquus (University of Gottingen, Germany) are propagated in algae medium as described (Boger and Sandmann, (1993) In: Target assays for modern herbicides and related phytotoxic compounds, Lewis Publishers) under same culturing conditions as mentioned for Chlamydomonas. Compound screening is performed at 450 μmol Phot*m^−2*[…] illumination.
(§16) Sensitive strains of Chlamydomonas reinhardtii or Scenedesmus obliquus (Tables 14, 15) are mutated with 0.14 […] (EMS) for 1 h as described by Loppes (1969, Mol Gen Genet. 104: 172-177) Tolerant strains are identified by screening of mutagenized cells on solid nutrient solution plates containing “coumarone-derivative herbicides” or other HPPD inhibiting herbicides at wildype-lethal concentrations. Examples of the data obtained are depicted in Table 16 and FIG. 2.

Assay [6] concerns Chlamydomonas strain CMr04. The description is as above. The class given is cell-based, Chlamydomonas reinhardtii. How it is done: as §15, §16
Assay [7] deals with Chlamydomonas strain CMr05. Described as above. The assay is classed as cell-based, Chlamydomonas reinhardtii. The protocol: as §15, §16
Assay [8] concerns Chlamydomonas strain CMr06. The description is as above. The assay is classed as cell-based, Chlamydomonas reinhardtii. The protocol:
as §15, §16

Assay [9] has as its system Chlamydomonas strain CMr10. Described as above. The settings on record: read-out: IC50 of growth inhibition. The class given is cell-based, Chlamydomonas reinhardtii. How it is done: as §15, §16
Assay [10] deals with Chlamydomonas strain CMr13. Described as above. The assay is classed as cell-based, Chlamydomonas reinhardtii. The settings on record: read-out: IC50 of growth inhibition. How it is done: as §15, §16
Assay [11] relates to Chlamydomonas strain CMr15. The assay is described as above. The class given is cell-based, Chlamydomonas reinhardtii. The protocol:
as §15, §16

Assay [12] concerns C. reinhardtii (CC-503). The experiment in a line: C. reinhardtii growth inhibition by HPPD inhibiting herbicides. The assay is classed as cell-based, Chlamydomonas reinhardtii.
Text: (§17) Bleaching herbicides with a mode of action in plastoquinone or tocopherol biosynthesis can inhibit algae growth (Tables 14 and 15). These effects can be partly reversed by intermediates of homogentisic acid biosynthesis (Table 14). To generate mutations conferring “coumarone-derivative herbicide” resistance in HPPD or HST genes, chemical or UV mutagenesis can be used. Especially unicellular organisms like Chlamydomonas reinhardtii or Scenedesmus obliquus are useful for identifying dominant mutations in herbicide resistance.
as §15

Assay [13] deals with Scenedesmus obliquus. The experiment in a line: S. obliquus growth inhibition. The class given is cell-based.
Text: as §17, §15

Where [14] appears, read: read-out: IC50 of growth inhibition.

SMILES strings stand for the structures. Read-outs that look alike come from different tables or passages of the source. Bounds are passed on as bounds.

Chain of Chlamydomonas HPPD1 (A0A2K3DET7 entry or part of it): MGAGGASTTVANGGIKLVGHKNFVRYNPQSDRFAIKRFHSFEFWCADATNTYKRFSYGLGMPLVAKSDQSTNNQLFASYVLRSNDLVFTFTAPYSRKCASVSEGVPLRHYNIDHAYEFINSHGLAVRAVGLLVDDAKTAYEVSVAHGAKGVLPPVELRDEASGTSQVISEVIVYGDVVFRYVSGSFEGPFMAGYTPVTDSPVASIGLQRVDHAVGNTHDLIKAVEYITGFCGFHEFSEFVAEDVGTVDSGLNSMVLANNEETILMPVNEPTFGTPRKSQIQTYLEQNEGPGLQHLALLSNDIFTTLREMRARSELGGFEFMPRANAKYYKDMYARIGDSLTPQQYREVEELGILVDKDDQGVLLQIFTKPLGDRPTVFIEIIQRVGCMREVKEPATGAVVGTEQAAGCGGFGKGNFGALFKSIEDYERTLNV
T3 sequence (P93836 whole entry Q293N): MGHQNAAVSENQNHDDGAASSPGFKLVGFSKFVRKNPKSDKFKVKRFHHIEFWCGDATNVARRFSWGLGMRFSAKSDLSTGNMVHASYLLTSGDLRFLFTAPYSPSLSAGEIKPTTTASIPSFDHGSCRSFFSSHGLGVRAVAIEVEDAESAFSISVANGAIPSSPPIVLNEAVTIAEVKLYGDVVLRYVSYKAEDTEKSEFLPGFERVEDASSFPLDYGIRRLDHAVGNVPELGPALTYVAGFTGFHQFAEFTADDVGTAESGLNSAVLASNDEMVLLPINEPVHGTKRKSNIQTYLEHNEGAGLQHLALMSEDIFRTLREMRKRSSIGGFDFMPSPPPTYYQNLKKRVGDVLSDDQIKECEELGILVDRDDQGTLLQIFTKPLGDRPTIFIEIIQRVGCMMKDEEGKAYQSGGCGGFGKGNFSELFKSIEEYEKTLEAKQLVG
T2 sequence (P93836 whole entry Q293H): as the sequence (P93836 whole entry Q293N) above, with N293H counted along it

As usually defined, the Ki is a dissociation constant, usually derived from enzyme kinetics or from competition with a known ligand. As for `O=S1(=O)C(c2ccc(Cl)cc2Cl)=C(O)c2ncccc2N1CC(F)F` [Inhibitor 2, 3-(2,4-dichlorophenyl)-1-(2,2-difluoroethyl)-2,2-dioxo-pyrido[3,2-c]thiazin-4-ol], the Ki in [1] is 0.013 µM; in assay [2], 0.139 µM; in [3], 0.019 µM; in [4], 0.044 µM.
As usually defined, the IC50 is the concentration that gives 50% inhibition. Consider `CS(=O)(=O)c1ccc(C(=O)C2C(=O)CCCC2=O)c([N+](=O)[O-])c1` [Mesotrione, reference compound], for which the IC50 in assay [5] was 30 µM; in assay [6] (setting [14]), above 600 µM; in [7] (setting [14]), above 600 µM; in [8] (setting [14]), above 600 µM; in assay [9], 450 µM; in assay [10], above 600 µM. In assay [11] (setting [14]), the IC50 was determined as 540 µM.
On to `C#Cc1ccc(-c2c(O)c3ncccc3oc2=O)c(C(F)(F)F)c1` [drawing 20], for which, in [12] (c 1 * 10^−4 M), the “Growth inihibition [%] C. reinhardtii (CC-503)” value was determined as 61% and the “Growth inihibition [%] C. reinhardtii (CC-503) + Homogentisic acid” value turned out to be 43%. In [12] (c 5 * 10^−4 M), the “Growth inihibition [%] C. reinhardtii (CC-503)” value is on record as 90% and the “Growth inihibition [%] C. reinhardtii (CC-503) + Homogentisic acid” value was found to be 67%.
Turning to `C#Cc1ccc(-c2c(O)c3ncccc3oc2=O)c(C(F)(F)F)c1` [drawing 21, 3-[4-ethynyl-2-(trifluoromethyl)phenyl]-4-hydroxy-pyrano[3,2-b]pyridin-2-one], the “Growth inihibition [%] Scenedesmus obliquus” value in [13] (c 1 * 10^−4 M) came to 100%; in assay [13] (c 1 * 10^−5 M) it was 77%.
Take `Cc1c(-c2c(O)c3ncccc3oc2=O)ccc(S(C)(=O)=O)c1C1=NOC(C)C1` (stereo not drawn) [“coumarone-derivative herbicides” 1, 4-hydroxy-3-[2-methyl-3-(5-methyl-4,5-dihydroisoxazol-3-yl)-4-methylsulfonyl-phenyl]pyrano[3,2-b]pyridin-2-one]: the IC50 in assay [5] (strain CC1961 wild-type) is 760 µM; in [6] (strain CMr04, read-out: IC50 of growth inhibition) it was above 1000 µM; in assay [7] (strain CMr05, read-out: IC50 of growth inhibition) it was above 1000 µM; in assay [8] (strain CMr06, read-out: IC50 of growth inhibition), above 1000 µM; in assay [9] it was above 1000 µM; in [10], 950 µM. In addition, the concentration for half-maximal inhibition (IC50) in assay [11] (strain CMr15, read-out: IC50 of growth inhibition) was above 1000 µM.
